Results as given in ChEMBL document CHEMBL1201862, “PubChem BioAssay data set” (2004).
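Results reflect a 48-hour exposure of cells in 96-well plates to compound at five concentrations. Here, GI50 denotes the concentration required for 50% inhibition of growth.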 Active and inactive are the calls of the source. Cut-off read from the data, not from the text of the source: active = GI50 up to about 1.1 µM and inactive = higher.

Key:
Assay in all cases: NCI anticancer screen, dose series, 48 h
Malme-3M = tested on: Malme-3M
IGROV-1 = tested on: IGROV-1
PC-3 = tested on: PC-3
OVCAR-5 = tested on: OVCAR-5
RPMI-8226 = tested on: RPMI-8226
HOP-92 = tested on: HOP-92
DU-145 = tested on: DU-145
786-0 = tested on: 786-0
BT-549 = tested on: BT-549
SK-MEL-2 = tested on: SK-MEL-2
COLO 205 = tested on: COLO 205
NCI/ADR-RES = tested on: NCI/ADR-RES
A549 = tested on: A549
HT-29 = tested on: HT-29
EKVX = tested on: EKVX
SNB-75 = tested on: SNB-75
NCI-H226 = tested on: NCI-H226
SF-539 = tested on: SF-539
OVCAR-4 = tested on: OVCAR-4
NCI-H23 = tested on: NCI-H23
SF-268 = tested on: SF-268
A498 = tested on: A498
KM12 = tested on: KM12
NCI-H522 = tested on: NCI-H522
SK-MEL-28 = tested on: SK-MEL-28
RXF 393 = tested on: RXF 393
CCRF-CEM = tested on: CCRF-CEM
K562 = tested on: K562
T47D = tested on: T47D
MDA-MB-231 = tested on: MDA-MB-231
SN12C = tested on: SN12C
OVCAR-8 = tested on: OVCAR-8
SW-620 = tested on: SW-620
U-251 = tested on: U-251
MDA-MB-435 = tested on: MDA-MB-435
UACC-257 = tested on: UACC-257
SR = tested on: SR
CAKI-1 = tested on: CAKI-1
SK-MEL-5 = tested on: SK-MEL-5
HCC 2998 = tested on: HCC 2998
Hs-578T = tested on: Hs-578T
SNB-19 = tested on: SNB-19
HL-60 = tested on: HL-60
UACC-62 = tested on: UACC-62
ACHN = tested on: ACHN
M14 = tested on: M14
UO-31 = tested on: UO-31
HCT-15 = tested on: HCT-15
MDA-N = tested on: MDA-N
NCI-H460 = tested on: NCI-H460
TK-10 = tested on: TK-10
HCT-116 = tested on: HCT-116
LOX IMVI = tested on: LOX IMVI
MOLT-4 = tested on: MOLT-4
MCF7 = tested on: MCF7
SK-OV-3 = tested on: SK-OV-3
SF-295 = tested on: SF-295
HOP-62 = tested on: HOP-62
OVCAR-3 = tested on: OVCAR-3

Structure (SMILES): COC(=O)c1scc(N)c1-n1ccc(=O)[nH]c1=O
- GI50 (Malme-3M): > 100 µM (inactive)
- GI50 (IGROV-1): > 100 µM (inactive)
- GI50 (PC-3): > 100 µM (inactive)
- GI50 (OVCAR-5): > 100 µM (inactive)
- GI50 (RPMI-8226): > 100 µM (inactive)
- GI50 (HOP-92): > 100 µM (inactive)
- GI50 (DU-145): > 100 µM (inactive)
- GI50 (786-0): > 100 µM (inactive)
- GI50 (BT-549): > 100 µM (inactive)
- GI50 (SK-MEL-2): > 100 µM (inactive)
- GI50 (COLO 205): > 100 µM (inactive)
- GI50 (NCI/ADR-RES): > 100 µM (inactive)
- GI50 (A549): > 100 µM (inactive)
- GI50 (HT-29): > 100 µM (inactive)
- GI50 (EKVX): > 100 µM (inactive)
- GI50 (SNB-75): > 100 µM (inactive)
- GI50 (NCI-H226): > 100 µM (inactive)
- GI50 (SF-539): > 100 µM (inactive)
- GI50 (OVCAR-4): > 100 µM (inactive)
- GI50 (NCI-H23): > 100 µM (inactive)
- GI50 (SF-268): > 100 µM (inactive)
- GI50 (A498): > 100 µM (inactive)
- GI50 (KM12): > 100 µM (inactive)
- GI50 (NCI-H522): > 100 µM (inactive)
- GI50 (SK-MEL-28): > 100 µM (inactive)
- GI50 (RXF 393): > 100 µM (inactive)
- GI50 (CCRF-CEM): > 100 µM (inactive)
- GI50 (K562): > 100 µM (inactive)
- GI50 (T47D): > 100 µM (inactive)
- GI50 (MDA-MB-231): > 100 µM (inactive)
- GI50 (SN12C): > 100 µM (inactive)
- GI50 (OVCAR-8): > 100 µM (inactive)
- GI50 (SW-620): > 100 µM (inactive)
- GI50 (U-251): > 100 µM (inactive)
- GI50 (MDA-MB-435): > 100 µM (inactive)
- GI50 (UACC-257): > 100 µM (inactive)
- GI50 (SR): > 100 µM (inactive)
- GI50 (CAKI-1): > 100 µM (inactive)
- GI50 (SK-MEL-5): > 100 µM (inactive)
- GI50 (HCC 2998): > 100 µM (inactive)
- GI50 (Hs-578T): > 100 µM (inactive)
- GI50 (SNB-19): > 100 µM (inactive)
- GI50 (HL-60): > 100 µM (inactive)
- GI50 (UACC-62): > 100 µM (inactive)
- GI50 (ACHN): > 100 µM (inactive)
- GI50 (M14): > 100 µM (inactive)
- GI50 (UO-31): > 100 µM (inactive)
- GI50 (HCT-15): > 100 µM
- GI50 (MDA-N): > 100 µM (inactive)
- GI50 (NCI-H460): > 100 µM (inactive)
- GI50 (TK-10): > 100 µM (inactive)
- GI50 (HCT-116): > 100 µM (inactive)
- GI50 (LOX IMVI): > 100 µM (inactive)
- GI50 (MOLT-4): > 100 µM (inactive)
- GI50 (MCF7): > 100 µM (inactive)

Structure (SMILES): COc1cc2cc(C(=O)N3C[C@H](CCl)c4c3cc(O)c3ccccc43)[nH]c2c(OC)c1OC
- GI50 (Malme-3M): 0.152 µM (active)
- GI50 (IGROV-1): 0.121 µM (active)
- GI50 (PC-3): 0.267 µM (active)
- GI50 (OVCAR-5): 0.264 µM (active)
- GI50 (SK-OV-3): 0.515 µM (active)
- GI50 (RPMI-8226): 0.121 µM (active)
- GI50 (HOP-92): 0.309 µM (active)
- GI50 (DU-145): 0.628 µM (active)
- GI50 (786-0): 0.0861 µM (active)
- GI50 (BT-549): 0.236 µM (active)
- GI50 (SK-MEL-2): 0.203 µM (active)
- GI50 (COLO 205): 1.32 µM (inactive)
- GI50 (NCI/ADR-RES): 0.136 µM (active)
- GI50 (A549): 0.252 µM (active)
- GI50 (HT-29): 0.185 µM (active)
- GI50 (EKVX): 0.31 µM (active)
- GI50 (SNB-75): 0.184 µM (active)
- GI50 (NCI-H226): 0.12 µM (active)
- GI50 (SF-539): 0.055 µM (active)
- GI50 (OVCAR-4): 0.261 µM (active)
- GI50 (NCI-H23): 0.0453 µM (active)
- GI50 (SF-295): 0.107 µM (active)
- GI50 (SF-268): 0.117 µM (active)
- GI50 (A498): 0.248 µM (active)
- GI50 (HOP-62): 0.044 µM (active)
- GI50 (KM12): 0.213 µM (active)
- GI50 (NCI-H522): 0.108 µM (active)
- GI50 (SK-MEL-28): 0.267 µM (active)
- GI50 (RXF 393): 0.0459 µM (active)
- GI50 (CCRF-CEM): 0.207 µM (active)
- GI50 (K562): 0.25 µM (active)
- GI50 (T47D): 1.71 µM (inactive)
- GI50 (MDA-MB-231): 1.69 µM (inactive)
- GI50 (SN12C): 0.0133 µM (active)
- GI50 (OVCAR-8): 0.0942 µM (active)
- GI50 (SW-620): 0.174 µM (active)
- GI50 (U-251): 0.1 µM (active)
- GI50 (OVCAR-3): 0.279 µM (active)
- GI50 (MDA-MB-435): 0.222 µM (active)
- GI50 (SR): 0.0224 µM (active)
- GI50 (CAKI-1): 0.789 µM (active)
- GI50 (SK-MEL-5): 0.0137 µM (active)
- GI50 (HCC 2998): 0.16 µM (active)
- GI50 (Hs-578T): 0.234 µM (active)
- GI50 (SNB-19): 0.246 µM (active)
- GI50 (HL-60): < 0.01 µM (active)
- GI50 (UACC-62): 0.106 µM (active)
- GI50 (ACHN): 0.0393 µM (active)
- GI50 (M14): 0.159 µM (active)
- GI50 (UO-31): 0.13 µM (active)
- GI50 (HCT-15): 0.192 µM
- GI50 (MDA-N): 1.29 µM (inactive)
- GI50 (NCI-H460): 0.042 µM (active)
- GI50 (TK-10): 0.277 µM (active)
- GI50 (HCT-116): 0.147 µM (active)
- GI50 (LOX IMVI): 0.101 µM (active)
- GI50 (MOLT-4): 0.0381 µM (active)
- GI50 (MCF7): 0.0335 µM (active)

Structure (SMILES): CC(CC[C@@H](O)C(C)(C)O)C1[C@@H](O)CC2(C)C3CC(O)C4C(C)(C)[C@@H](OC5OC(CO)C(O)C(O)C5O)CC[C@@]45C[C@@]35CC[C@]12C (stereo not given in full)
- GI50 (Malme-3M): > 10 µM (inactive)
- GI50 (IGROV-1): > 10 µM (inactive)
- GI50 (PC-3): > 10 µM (inactive)
- GI50 (OVCAR-5): > 10 µM (inactive)
- GI50 (SK-OV-3): > 10 µM (inactive)
- GI50 (RPMI-8226): > 10 µM (inactive)
- GI50 (HOP-92): > 10 µM (inactive)
- GI50 (DU-145): > 10 µM (inactive)
- GI50 (786-0): > 10 µM (inactive)
- GI50 (BT-549): > 10 µM (inactive)
- GI50 (SK-MEL-2): > 10 µM (inactive)
- GI50 (COLO 205): > 10 µM (inactive)
- GI50 (NCI/ADR-RES): > 10 µM (inactive)
- GI50 (A549): > 10 µM (inactive)
- GI50 (HT-29): > 10 µM (inactive)
- GI50 (EKVX): > 10 µM (inactive)
- GI50 (SNB-75): > 10 µM (inactive)
- GI50 (NCI-H226): 8.79 µM (inactive)
- GI50 (SF-539): > 10 µM (inactive)
- GI50 (OVCAR-4): > 10 µM (inactive)
- GI50 (NCI-H23): > 10 µM (inactive)
- GI50 (SF-295): > 10 µM (inactive)
- GI50 (SF-268): > 10 µM (inactive)
- GI50 (A498): > 10 µM (inactive)
- GI50 (HOP-62): > 10 µM (inactive)
- GI50 (KM12): > 10 µM (inactive)
- GI50 (NCI-H522): > 10 µM (inactive)
- GI50 (SK-MEL-28): > 10 µM (inactive)
- GI50 (RXF 393): > 10 µM (inactive)
- GI50 (CCRF-CEM): > 10 µM (inactive)
- GI50 (K562): > 10 µM (inactive)
- GI50 (T47D): > 10 µM (inactive)
- GI50 (MDA-MB-231): > 10 µM (inactive)
- GI50 (SN12C): > 10 µM (inactive)
- GI50 (OVCAR-8): > 10 µM (inactive)
- GI50 (SW-620): > 10 µM (inactive)
- GI50 (U-251): > 10 µM (inactive)
- GI50 (OVCAR-3): > 10 µM (inactive)
- GI50 (MDA-MB-435): > 10 µM (inactive)
- GI50 (UACC-257): > 10 µM (inactive)
- GI50 (SR): > 10 µM (inactive)
- GI50 (CAKI-1): > 10 µM (inactive)
- GI50 (SK-MEL-5): > 10 µM (inactive)
- GI50 (HCC 2998): > 10 µM (inactive)
- GI50 (Hs-578T): > 10 µM (inactive)
- GI50 (SNB-19): > 10 µM (inactive)
- GI50 (HL-60): > 10 µM (inactive)
- GI50 (UACC-62): > 10 µM (inactive)
- GI50 (ACHN): > 10 µM (inactive)
- GI50 (M14): > 10 µM (inactive)
- GI50 (HCT-15): > 10 µM
- GI50 (MDA-N): > 10 µM (inactive)
- GI50 (NCI-H460): > 10 µM (inactive)
- GI50 (TK-10): > 10 µM (inactive)
- GI50 (HCT-116): > 10 µM (inactive)
- GI50 (MOLT-4): > 10 µM (inactive)
- GI50 (MCF7): > 10 µM (inactive)
